Measurements taken from publication PMC12821709, “Biomimetic Chromatography as a High-Throughput Tool for Screening Bioaccumulation and Acute Aquatic Toxicity of Pesticides” (Journal of Xenobiotics, 2025).
In brackets after ≈: the same amount, converted by molar mass. Read-outs that look alike come from different tables or passages of the source.

Tests used:
[1] = assay type: physicochemical
Protocol: All biochromatographic experiments were performed using the gradient IAM protocols developed by Valkó and co-workers and previously implemented in this laboratory. Analyses were carried out on a Prominence-i LC-2030C 3D HPLC system (Shimadzu, Tokyo, Japan) controlled by LabSolutions software (v6.81, Kyoto, Japan) and equipped with an IAM.PC.DD2 column (10 × 4.6 mm, 10.0 µm) packed on the newer ‘Type B’ silica support and protected by a guard column (Regis Technologies, Morton Grove, IL, USA).
Mobile phase A consisted of 50 mM ammonium acetate (VWR International, Leuven, Belgium) in water, adjusted to physiological pH 7.4 with concentrated ammonia solution (Avantor Performance Materials Poland S.A., Gliwice, Poland). Ultrapure water with a resistivity of 18.2 MΩ was obtained from a Milli-Q water purification system (Merck Millipore, Darmstadt, Germany). For phospholipid affinity measurements, mobile phase B was HPLC-grade acetonitrile (Chempur, Piekary Śląskie, Poland). A linear gradient from 0 to 85% B was applied over 5.25 min, followed by an isocratic hold at 85% B for 0.5 min. The mobile phase flow rate was set at 1.5 mL/min, and the column temperature was maintained at 30 °C.
The reference substances used to calculate CHIIAM values were obtained as follows: acetanilide, butyrophenone and octanophenone from Alfa Aesar (Haverhill, MA, USA); acetophenone and paracetamol from Sigma-Aldrich (Steinheim, Germany); and heptanophenone, hexanophenone, propiophenone and valerophenone from Acros Organics (Pittsburgh, PA, USA).
Dimethyl sulfoxide (Avantor Performance Materials Poland S.A., Gliwice, Poland) was used to dissolve the analytes and to prepare stock solutions at a concentration of 200 µg/mL. UV detection was performed in the range 190–300 nm. The injection volume was 5 µL. Each compound was analyzed in duplicate, and the variation in retention times was lower than 2%. Raw retention times for the pesticides and reference standards are available in Zenodo platform https://doi.org/10.5281/zenodo.17672582.

fish = conditions: cited from earlier work
[2] = tested on: rainbow trout (Oncorhynchus mykiss); conditions: 96 h, ref Pesticide Properties DataBase (PPDB; University of Hertfordshire), cited from earlier work
Daphnia magna = conditions: cited from earlier work
[3] = IAM.PC.DD2 column, gradient 0-85% acetonitrile, 50 mM ammonium acetate pH 7.4, 30 °C
[4] = in fish, dimensionless, ref Pesticide Properties DataBase (PPDB; University of Hertfordshire)
[5] = 48 h, Daphnia magna, ref Pesticide Properties DataBase (PPDB; University of Hertfordshire)

Structure (SMILES): CCNc1nc(Cl)nc(NC(C)(C)C)n1 [Terbuthylazine, terbuthylazine]
- CHIIAM (IAM chromatographic hydrophobicity index) [1, 3]: 34.3
- BCF (bioconcentration factor) (fish; [4]): 34
- BCF (bioconcentration factor) (fish; in fish, dimensionless, ref Pesticide Properties DataBase (PPDB; University of Hertfordshire), listed as terbuthylazine): ≈ 34
- LC50 Fish [2]: 2.2 µg/mL (≈ 9.58 µM)
- EC50 Daphnia (Daphnia magna; [5]): 21200 ng/mL (≈ 92.3 µM)

Structure (SMILES): CO/C=C(/C(=O)OC)c1ccccc1Oc1cc(Oc2ccccc2C#N)ncn1 [Azoxystrobin, azoxystrobin]
- CHIIAM (IAM chromatographic hydrophobicity index) [1, 3]: 31.6
- LC50 Fish [2]: 0.47 µg/mL (≈ 1.17 µM)
- EC50 Daphnia (Daphnia magna; [5]): 230 ng/mL (≈ 0.57 µM)

Structure (SMILES): CCCC1COC(Cn2cncn2)(c2ccc(Cl)cc2Cl)O1 (stereo not drawn) [Propiconazole, propiconazole]
- CHIIAM (IAM chromatographic hydrophobicity index) [1, 3]: 38.7
- BCF (bioconcentration factor) (fish; [4]): 116
- LC50 Fish [2]: 2.6 µg/mL (≈ 7.6 µM)
- EC50 Daphnia (Daphnia magna; [5]): 10200 ng/mL (≈ 29.8 µM)

Structure (SMILES): CCOP(=S)(OCC)Oc1nc(Cl)c(Cl)cc1Cl [Chlorpyrifos, chlorpyrifos]
- CHIIAM (IAM chromatographic hydrophobicity index) [1, 3]: 48.1
- BCF (bioconcentration factor) (fish; [4]): 1374
- LC50 Fish [2]: 0.025 µg/mL (≈ 0.0713 µM)
- EC50 Daphnia (Daphnia magna; [5]): 0.1 ng/mL (≈ 0.000285 µM)
- EC50 Daphnia (Daphnia magna; 48 h, Daphnia magna, ref Pesticide Properties DataBase (PPDB; University of Hertfordshire), listed as chlorpyrifos): 0.1 to 1 ng/mL

Structure (SMILES): CNC(=O)Oc1cccc2ccccc12 [Carbaryl, carbaryl]
- BCF (bioconcentration factor) (fish; [4]): 44
- EC50 Daphnia (Daphnia magna; [5]): 6.4 ng/mL (≈ 0.0318 µM)
- EC50 Daphnia (Daphnia magna; 48 h, Daphnia magna, ref Pesticide Properties DataBase (PPDB; University of Hertfordshire), listed as carbaryl): ≈ 0.0064 mg/L

Structure (SMILES): CC1(C)C(C=C(Cl)Cl)C1C(=O)OCc1cccc(Oc2ccccc2)c1 (stereo not drawn) [Permethrin, permethrin]
- CHIIAM (IAM chromatographic hydrophobicity index) [1, 3]: 54.8
- BCF (bioconcentration factor) (fish; [4]): 300
- LC50 Fish [2]: 0.0125 µg/mL (≈ 0.0319 µM)
- EC50 Daphnia (Daphnia magna; [5]): 0.6 ng/mL (≈ 0.00153 µM)

Structure (SMILES): C/C(=N\C#N)N(C)Cc1ccc(Cl)nc1 [Acetamiprid, acetamiprid]
- CHIIAM (IAM chromatographic hydrophobicity index) [1, 3]: 13.4
- LC50 Fish [2]: 100 µg/mL (≈ 449 µM)
- EC50 Daphnia (Daphnia magna; [5]): 49800 ng/mL (≈ 224 µM)

Structure (SMILES): CC(C)C1(C)N=C(c2ncccc2C(=O)O)NC1=O (stereo not drawn) [Imazapyr, imazapyr]
- CHIIAM (IAM chromatographic hydrophobicity index) [1, 3]: −12.1
- BCF (bioconcentration factor) (fish; [4]): 2.54
- LC50 Fish [2]: 100 µg/mL (≈ 383 µM)
- EC50 Daphnia (Daphnia magna; [5]): 100000 ng/mL (≈ 383 µM)
- EC50 Daphnia (Daphnia magna; 48 h, Daphnia magna, ref Pesticide Properties DataBase (PPDB; University of Hertfordshire), listed as imazapyr): ≈ 100 mg/L

Structure (SMILES): CC1(C)C(C(=O)OC(C#N)c2cccc(Oc3ccccc3)c2)C1(C)C (stereo not drawn) [Fenpropathrin, fenpropathrin]
- CHIIAM (IAM chromatographic hydrophobicity index) [1, 3]: 48.6
- BCF (bioconcentration factor) (fish; [4]): 1100
- LC50 Fish ([2]; listed as fenpropathrin): ≈ 0.0023 mg/L
- LC50 Fish [2]: 0.0023 µg/mL (≈ 0.00658 µM)
- EC50 Daphnia (Daphnia magna; [5]): 0.53 ng/mL (≈ 0.00152 µM)

Structure (SMILES): Cc1c(COC(=O)[C@@H]2[C@H](/C=C(\Cl)C(F)(F)F)C2(C)C)cccc1-c1ccccc1 (racemic) [Bifenthrin, bifenthrin]
- CHIIAM (IAM chromatographic hydrophobicity index) [1, 3]: 54.4
- CHIIAM (IAM chromatographic hydrophobicity index) ([1]; IAM.PC.DD2 column, gradient 0-85% acetonitrile, 50 mM ammonium acetate pH 7.4, 30 °C, listed as bifenthrin): > 48
- BCF (bioconcentration factor) (fish; [4]): 1703
- LC50 Fish ([2]; listed as bifenthrin): ≈ 0.00026 mg/L
- LC50 Fish [2]: 0.00026 µg/mL (≈ 0.000615 µM)
- EC50 Daphnia (Daphnia magna; [5]): 0.11 ng/mL (≈ 0.00026 µM)

Structure (SMILES): O=C(Nc1ccccc1-c1ccc(Cl)cc1)c1cccnc1Cl [Boscalid, boscalid]
- CHIIAM (IAM chromatographic hydrophobicity index) [1, 3]: 38.0
- BCF (bioconcentration factor) (fish; [4]): 107
- BCF (bioconcentration factor) (fish; in fish, dimensionless, ref Pesticide Properties DataBase (PPDB; University of Hertfordshire), listed as boscalid): ≈ 107
- LC50 Fish [2]: 2.7 µg/mL (≈ 7.87 µM)
- EC50 Daphnia (Daphnia magna; [5]): 5330 ng/mL (≈ 15.5 µM)

Structure (SMILES): CCOP(=S)(OCC)Oc1cc(C)nc(C(C)C)n1 [Diazinon, diazinon]
- CHIIAM (IAM chromatographic hydrophobicity index) [1, 3]: 39.3
- BCF (bioconcentration factor) (fish; [4]): 500
- LC50 Fish [2]: 3.1 µg/mL (≈ 10.2 µM)
- EC50 Daphnia (Daphnia magna; [5]): 1 ng/mL (≈ 0.00329 µM)
- EC50 Daphnia (Daphnia magna; 48 h, Daphnia magna, ref Pesticide Properties DataBase (PPDB; University of Hertfordshire), listed as diazinon): 0.1 to 1 ng/mL

Structure (SMILES): COc1c(Cl)ccc(Cl)c1C(=O)O [Dicamba, dicamba]
- CHIIAM (IAM chromatographic hydrophobicity index) ([1]; pH 7.4): 8.2
- BCF (bioconcentration factor) (fish; in vivo): 15
- LC50 Fish [2]: 100 µg/mL (≈ 452 µM)
- EC50 Daphnia (Daphnia magna; in vivo): 41000 ng/mL (≈ 185 µM)

Structure (SMILES): CC(C)(C)C(O)(CCc1ccc(Cl)cc1)Cn1cncn1 (stereo not drawn) [Tebuconazole, tebuconazole]
- CHIIAM (IAM chromatographic hydrophobicity index) [1, 3]: 39.5
- BCF (bioconcentration factor) (fish; [4]): 78
- LC50 Fish [2]: 4.4 µg/mL (≈ 14.3 µM)
- EC50 Daphnia (Daphnia magna; [5]): 2790 ng/mL (≈ 9.06 µM)

Structure (SMILES): O=[N+]([O-])NC1=NCCN1Cc1ccc(Cl)nc1 [Imidacloprid, imidacloprid]
- CHIIAM (IAM chromatographic hydrophobicity index) [1, 3]: 14.2
- BCF (bioconcentration factor) (fish; [4]): 0.61
- BCF (bioconcentration factor) (fish; in fish, dimensionless, ref Pesticide Properties DataBase (PPDB; University of Hertfordshire), listed as imidacloprid): ≈ 0.6
- LC50 Fish [2]: 83 µg/mL (≈ 325 µM)
- EC50 Daphnia (Daphnia magna; [5]): 85000 ng/mL (≈ 332 µM)

Structure (SMILES): N#Cc1c[nH]cc1-c1cccc2c1OC(F)(F)O2 [Fludioxonil, fludioxonil]
- CHIIAM (IAM chromatographic hydrophobicity index) [1, 3]: 43.5
- BCF (bioconcentration factor) (fish; [4]): 336
- LC50 Fish [2]: 0.23 µg/mL (≈ 0.927 µM)
- EC50 Daphnia (Daphnia magna; [5]): 400 ng/mL (≈ 1.61 µM)

Structure (SMILES): CCNc1nc(Cl)nc(NC(C)C)n1 [Atrazine, atrazine]
- CHIIAM (IAM chromatographic hydrophobicity index) [1, 3]: 27.4
- BCF (bioconcentration factor) (fish; [4]): 4.3
- LC50 Fish [2]: 4.5 µg/mL (≈ 20.9 µM)
- EC50 Daphnia (Daphnia magna; [5]): 85000 ng/mL (≈ 394 µM)
- EC50 Daphnia (Daphnia magna; 48 h, Daphnia magna, ref Pesticide Properties DataBase (PPDB; University of Hertfordshire), listed as atrazine): ≈ 85 mg/L

Structure (SMILES): COP(=S)(OC)SCn1nnc2ccccc2c1=O [Azinphos-methyl, azinphos-methyl]
- BCF (bioconcentration factor) (fish; [4]): 40
- EC50 Daphnia (Daphnia magna; [5]): 1.1 ng/mL (≈ 0.00347 µM)

Structure (SMILES): COP(=S)(OC)Oc1ccc([N+](=O)[O-])c(C)c1 [Fenitrothion, fenitrothion]
- CHIIAM (IAM chromatographic hydrophobicity index) [1, 3]: 38.1
- BCF (bioconcentration factor) (fish; [4]): 29
- LC50 Fish [2]: 1.3 µg/mL (≈ 4.69 µM)
- EC50 Daphnia (Daphnia magna; [5]): 8.6 ng/mL (≈ 0.031 µM)
